From publication PMC6407204, “Oral administration of the cannabigerol derivative VCE-003.2 promotes subventricular zone neurogenesis and protects against mutant huntingtin-induced neurodegeneration” (Translational Neurodegeneration, 2019)

Columns and labels:
[1] = test system: relevant cytochrome P450 isoforms; type: in vitro ADME; conditions: human liver microsomes, up to 25 μM
Procedure: (§1) Supplementary file 40035_2019_148_MOESM2_ESM.pdf: Additional file 2: Cytochrome P450 Inhibition (IC50 Determination). CYP1A Inhibition. VCE-003.2 (0.1, 0.25, 1, 2.5, 10, 25 μM in DMSO; final DMSO concentration = 0.3%) was incubated with human liver microsomes (0.25 mg/mL) and NADPH (1 mM) in the presence of the probe substrate ethoxyresorufin (0.5 μM) for 5 min at 37 °C. The selective CYP1A inhibitor, alpha-naphthoflavone, was screened alongside the test compounds as a positive control. CYP2B6 Inhibition. VCE-003.2 (0.1, 0.25, 1, 2.5, 10, 25 μM in DMSO; final DMSO concentration = 0.3%) was incubated with human liver microsomes (0.1 mg/mL) and NADPH (1 mM) in the presence of the probe substrate bupropion (110 μM) for 5 min at 37 °C. The selective CYP2B6 inhibitor, ticlopidine, was screened alongside the test compounds as a positive control. CYP2C8 Inhibition. […] For the CYP1A incubations, the reactions were terminated by methanol, and the formation of the metabolite, resorufin, was monitored by fluorescence (excitation wavelength = 535 nm, emission wavelength = 595 nm). […] Hydroxybupropion, 6α-hydroxypaclitaxel and 6ß-hydroxytestosterone were analyzed separately by LC-MS/MS. […]

CYP1A = target: T1, CYP1A (Homo sapiens, UniProt P05177); type: in vitro ADME; conditions: Substrate = Etoxyresorufin, human liver microsomes
T1 construct: from tissue; host or cells: human liver microsomes
T1 sequence (P05177 2-516 limits assumed): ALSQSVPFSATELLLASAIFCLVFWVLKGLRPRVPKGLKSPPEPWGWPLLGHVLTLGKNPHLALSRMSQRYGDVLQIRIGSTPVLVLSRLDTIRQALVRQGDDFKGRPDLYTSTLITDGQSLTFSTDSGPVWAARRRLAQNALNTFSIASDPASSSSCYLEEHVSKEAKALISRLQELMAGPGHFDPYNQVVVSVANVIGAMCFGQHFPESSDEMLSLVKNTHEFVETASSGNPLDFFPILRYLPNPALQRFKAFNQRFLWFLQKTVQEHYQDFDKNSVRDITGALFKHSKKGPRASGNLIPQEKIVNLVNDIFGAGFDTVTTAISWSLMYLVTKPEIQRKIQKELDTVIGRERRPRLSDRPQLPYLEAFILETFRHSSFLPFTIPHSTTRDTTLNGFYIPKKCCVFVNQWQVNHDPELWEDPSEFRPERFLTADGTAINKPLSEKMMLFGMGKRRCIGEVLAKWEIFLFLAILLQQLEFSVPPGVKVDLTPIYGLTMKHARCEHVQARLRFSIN
Procedure: as §1

neural progenitor = test system: neural progenitor; set-up: method as in PMID 27430371; conditions: cited from earlier work

SMILES: CCCCCC1=C(NCC)C(=O)C(CC=C(C)CCC=C(C)C)=C(O)C1=O [VCE-003.2, 2-(3,7-dimethyl-octa-2,6-dienyl)-6-ethylamino-3-hydroxy-5-pentyl-(1,4) benzoquinone]
- inhibition of cytochrome P450 isoforms (in words) [1]: did not inhibit significantly
- IC50 (CYP1A): > 25 µM
- neural progenitor survival (neural progenitor): increases neural progenitor survival
